Data from patent US20250367173A1, “ECTONUCLEOTIDE PYROPHOSPHATASE-PHOSPHODIESTERASE-1 INHIBITORS AND PHARMACEUTICAL COMPOSITIONS COMPRISING THE SAME” (LigaChem Biosciences Inc., priority 2022, published 2025).

Tests used:
ENPP-1 [1] = biological target: T1, ENPP-1 (Homo sapiens, UniProt P22413); test: ENPP-1 enzyme assay with pNP-TMP substrate; assay type: biochemical; conditions: 12.5 ng ENPP-1, 720 μM substrate pNP-TMP, pH 9.0, 37° C., 60 minutes, absorbance 405 nm; average IC50
T1 construct: purchased Biovendor RD172124100
T1 sequence (P22413 1-925): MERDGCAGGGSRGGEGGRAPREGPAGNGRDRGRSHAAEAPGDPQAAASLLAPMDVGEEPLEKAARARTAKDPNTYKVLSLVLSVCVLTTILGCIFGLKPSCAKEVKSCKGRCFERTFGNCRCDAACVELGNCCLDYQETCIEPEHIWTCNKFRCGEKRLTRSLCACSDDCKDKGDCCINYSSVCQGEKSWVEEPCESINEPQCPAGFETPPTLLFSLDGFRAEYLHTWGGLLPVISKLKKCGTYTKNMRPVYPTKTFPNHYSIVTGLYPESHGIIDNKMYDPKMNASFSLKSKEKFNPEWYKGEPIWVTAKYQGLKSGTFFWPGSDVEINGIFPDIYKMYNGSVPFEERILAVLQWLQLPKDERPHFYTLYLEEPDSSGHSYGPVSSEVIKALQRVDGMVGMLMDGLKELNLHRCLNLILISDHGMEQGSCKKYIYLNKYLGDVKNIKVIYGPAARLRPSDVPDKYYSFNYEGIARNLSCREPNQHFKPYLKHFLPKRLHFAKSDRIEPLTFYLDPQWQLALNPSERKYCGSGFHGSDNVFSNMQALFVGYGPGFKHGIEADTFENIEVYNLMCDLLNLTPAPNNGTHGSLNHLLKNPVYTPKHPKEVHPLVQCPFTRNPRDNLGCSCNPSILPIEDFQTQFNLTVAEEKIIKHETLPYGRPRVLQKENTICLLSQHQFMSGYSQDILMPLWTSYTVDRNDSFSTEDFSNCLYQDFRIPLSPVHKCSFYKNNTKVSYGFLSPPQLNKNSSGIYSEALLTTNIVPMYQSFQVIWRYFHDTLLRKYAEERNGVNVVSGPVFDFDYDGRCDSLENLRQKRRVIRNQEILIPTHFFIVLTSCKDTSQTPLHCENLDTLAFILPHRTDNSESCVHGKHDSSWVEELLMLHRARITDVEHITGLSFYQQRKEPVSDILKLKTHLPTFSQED
Description: In order to measure the ENPP-1 inhibitory activity of the compounds according to the present disclosure, the following tests were performed.
ENPP-1 hydrolyzes a variety of substrates, including phosphodiester bonds of nucleotides and nucleotide sugars and pyrophosphate bonds of nucleotides and nucleotide sugars. p-Nitrophenyl 5′-thymidine monophosphate (p-Nph-5′-TMP) is an artificial substrate for 5′-adenosine monophosphate (AMP), which is hydrolyzed by the human recombinant ENPP-1 enzyme. In the above reaction, ENPP-1 enzymatic activity is monitored through the formation of yellow p-nitrophenolate, which absorbs at 405 nm.
First, the reaction mixture contains 100 mM Tris-HCl (pH 9.0), 150 mM NaCl, […], and 1% DMSO. Serially diluted ENPP-1 inhibitors (test compound concentrations ranging from 10 μM to 0.5 nM) are reacted with 12.5 ng of ENPP-1 (Biovendor, catalog number RD172124100) and 720 μM substrate pNP-TMP at 37° C. for 60 minutes. All assays include a DMSO control without ENPP-1 inhibitor that gives maximum absorbance.
(§1) After 60 minutes of this reaction, the […] is measured using an Epoch™ Microplate Spectrophotometer (BioTek Instruments Inc.). Inhibition (%) is calculated using the following formula: Sample OD405 nm/Max OD405 nm×100%. % residual ENPP-1 enzyme activity versus IC50 values for ENPP-1 inhibitor concentrations were determined by fitting inhibition curves using the 4-parameter method of GraphPad Prism® software [GraphPad version 9.3.1 for Windows, GraphPad Software, La Jolla California USA, www.graphpad.com].

ENPP-1 [2] = biological target: T1, ENPP-1; test: ENPP-1 enzyme assay with cGAMP substrate; assay type: biochemical; conditions: 200 pM ENPP-1, 10 μM substrate 2′3′-cGAMP, pH 7.4, 37° C., 30 minutes, Transcreener AMP2/GMP2 kit; average IC50
Description: 2′3′-cGAMP is a natural substrate specifically hydrolyzed by ENPP-1, and produces 5′-adenosine monophosphate (AMP) and 5′-guanosine monophosphate (GMP). AMP and GMP produced from the reaction are monitored for ENPP-1 enzyme activity through an AMP^2/GMP^2 ENPP-1 Assay kit (Bellbrook Labs, catalog number 3015).
First, the reaction mixture contains 25 mM Tris-HCl (pH 7.4), 5 mM MgCl2, 0.01% Brij-35, and 1% DMSO. Serially diluted ENPP-1 inhibitors (test compound concentrations ranging from 10 μM to 0.5 nM) are reacted with 200 pM ENPP-1 (Biovendor, catalog number RD172124100) and 10 μM substrate 2′3′-cGAMP at 37° C. for 30 minutes. All assays include a DMSO control without ENPP-1 inhibitor that provides maximal AMP and GMP production. After 30 minutes of this reaction, AMP and GMP production is detected as a measure of ENPP-1 enzymatic activity using the Transcreener® AMP^2/GMP^2 ENPP-1 Assay kit. The detection reagent is a reagent containing 16 nM AMP^2/GMP^2 Antibody-Tb, 25 mM Tris-HCl and 60.1 nM AMP/GMP HiLyte647 Tracer, which is added by 5 μl, mixed well, and incubated at 25° C. for 2 hours.
as §1, with “The” for “After 60 minutes of this reaction, the”, “a SPARK Cyto plate reader (Tecan).” for “an Epoch™ Microplate Spectrophotometer (BioTek Instruments Inc.).”, “(Max 615:665 ratio-615:665 ratio)/Max 615:665 ratio×100%.” for “Sample OD405 nm/Max OD405 nm×100%.”

Compound	IC50 (ENPP-1 [1]) [nM]	IC50 (ENPP-1 [2]) [nM]
COc1ccc2c(c1)c1c(n2Cc2ccc(S(N)(=O)=O)cc2)CCCN1 [Compound 38, 4-((8-methoxy-1,2,3,4-tetrahydro-5H-pyrido[3,2-b]indol-5-yl)methyl)benzenesulfonamide]	< 1000	< 1000
COc1ccc2c(c1)c1c(n2Cc2ccc(S(N)(=O)=O)cc2)CCNC1=O [Compound 41, 4-((8-methoxy-1-oxo-1,2,3,4-tetrahydro-5H-pyrido[4,3-b]indol-5-yl)methyl)benzene sulfonamide]	< 1000	1000 to 10000
COc1ccc2c3c(n(Cc4ccc(S(N)(=O)=O)cc4)c2c1)CCNC3=O [Compound 42, 4-((7-methoxy-1-oxo-1,2,3,4-tetrahydro-5H-pyrido[4,3-b]indol-5-yl)methyl)benzene sulfonamide]	< 1000	< 1000
COc1ccc2c3c(=O)[nH]ccc3n(Cc3ccc(S(N)(=O)=O)cc3)c2c1 [Compound 43, 4-((7-methoxy-1-oxo-1,2-dihydro-5H-pyrido[4,3-b]indol-5-yl)methyl)benzenesulfonamide]	< 1000	1000 to 10000
COc1ccc2c(c1)c1c(=O)[nH]ncc1n2Cc1ccc(S(N)(=O)=O)cc1 [Compound 44, 4-((8-methoxy-1-oxo-1,2-dihydro-5H-pyridazino[4,5-b]indol-5-yl)methyl)benzene sulfonamide]	< 1000	< 1000
COc1ccc2c3c(=O)[nH]ncc3n(Cc3ccc(S(N)(=O)=O)cc3)c2c1 [Compound 45, 4-((7-methoxy-1-oxo-1,2-dihydro-5H-pyridazino[4,5-b]indol-5-yl)methyl)benzene sulfonamide]	< 1000	< 1000
COc1ccc2c3c(=O)[nH]ncc3n(Cc3ccc(S(C)(=N)=O)cc3)c2c1 (stereo not drawn) [Compound 46, 7-methoxy-5-(4-(S-methylsulfonimidoyl)benzyl)-2,5-dihydro-1H-pyridazino[4,5-b]indol-1-one]	< 1000	< 1000
COc1ccc2c3cnncc3n(Cc3ccc(S(N)(=O)=O)cc3)c2c1 [Compound 47, 4-((7-methoxy-5H-pyridazino[4,5-b]indol-5-yl)methyl)benzenesulfonamide]	< 1000	1000 to 10000
COc1ccc2c3cncnc3n(Cc3ccc(S(N)(=O)=O)cc3)c2c1 [Compound 48, 4-((7-methoxy-9H-pyrimido[4,5-b]indol-9-yl)methyl)benzenesulfonamide]	< 1000	1000 to 10000
COc1ccc2c(c1)c1cccnc1n2Cc1ccc(S(N)(=O)=O)cc1 [Compound 49, 4-((6-methoxy-9H-pyrido[2,3-b]indol-9-yl)methyl)benzenesulfonamide]	< 1000	1000 to 10000
COc1ccc2c(c1)c1ncncc1n2Cc1ccc(S(N)(=O)=O)cc1 [Compound 51, 4-((8-methoxy-5H-pyrimido[5,4-b]indol-5-yl)methyl)benzenesulfonamide]	< 1000	< 1000
COc1ccc2c3cnccc3n(Cc3ccc(S(N)(=O)=O)cc3)c2c1 [Compound 52, 4-((7-methoxy-5H-pyrido[4,3-b]indol-5-yl)methyl)benzenesulfonamide]	< 1000	1000 to 10000
COc1ccc2c3ncccc3n(Cc3ccc(S(N)(=O)=O)cc3)c2c1 [Compound 53, 4-((7-methoxy-5H-pyrido[3,2-b]indol-5-yl)methyl)benzenesulfonamide]	< 1000	< 1000
COc1cc2c3ncccc3n(Cc3ccc(P(=O)(O)O)cc3)c2cc1F [Compound 57, (4-((7-fluoro-8-methoxy-5H-pyrido[3,2-b]indol-5-yl)methyl)phenyl)phosphonic acid]	< 1000	< 1000
COc1ccc2c(c1)c1ncccc1n2Cc1ccc(C(F)(F)P(=O)(O)O)cc1 [Compound 58, (difluoro (4-((8-methoxy-5H-pyrido[3,2-b]indol-5-yl)methyl)phenyl)methyl)phosphonic acid]	< 1000	1000 to 10000
